How the values were obtained:
[1] = system: barnyardgrass; experiment: Test A pre-/postemergence greenhouse test; format: in vivo, Echinochloa crus-galli; settings: for Plant response rating, Barnyardgrass: 0 to 100 scale where 0 is no effect and 100 is complete control; for Barnyardgrass plant response rating: 0 to 100 scale
Summary of the method: (§1)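 Visual injury ratings, made relative to untreated controls roughly ten days after treatment, cover both preemergence and postemergence application. Compounds in a surfactant-containing non-phytotoxic solvent were sprayed onto the soil surface after sowing and, simultaneously, onto young plants at the one- to two-leaf stage.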

[2] = system: crabgrass; experiment: Test A pre-/postemergence greenhouse test; format: in vivo, Digitaria sanguinalis; settings: for Plant response rating, Crabgrass, Large: 0 to 100 scale where 0 is no effect and 100 is complete control; for Crabgrass, Large plant response rating: 0 to 100 scale
Summary of the method: as §1

[3] = system: giant foxtail; experiment: Test A pre-/postemergence greenhouse test; format: in vivo, Setaria faberi; settings: for Plant response rating, Foxtail, Giant: 0 to 100 scale where 0 is no effect and 100 is complete control; for Foxtail, Giant plant response rating: 0 to 100 scale
Summary of the method: as §1

[4] = system: morningglory; experiment: Test A pre-/postemergence greenhouse test; format: in vivo, Ipomoea spp.; settings: for Plant response rating, Morningglory: 0 to 100 scale where 0 is no effect and 100 is complete control; for Morningglory plant response rating: 0 to 100 scale
Summary of the method: as §1

[5] = system: redroot pigweed; experiment: Test A pre-/postemergence greenhouse test; format: in vivo, Amaranthus retroflexus; settings: for Plant response rating, Pigweed: 0 to 100 scale where 0 is no effect and 100 is complete control; for Pigweed plant response rating: 0 to 100 scale
Summary of the method: as §1

[6] = system: velvetleaf; experiment: Test A pre-/postemergence greenhouse test; format: in vivo, Abutilon theophrasti; settings: for Plant response rating, Velvetleaf: 0 to 100 scale where 0 is no effect and 100 is complete control; for Velvetleaf plant response rating: 0 to 100 scale
Summary of the method: as §1

[7] = system: wheat; experiment: Test A pre-/postemergence greenhouse test; format: in vivo, Triticum aestivum; settings: for Plant response rating, Wheat: 0 to 100 scale where 0 is no effect and 100 is complete control; for Wheat plant response rating: 0 to 100 scale
Summary of the method: as §1

[8] = system: corn; experiment: Test A pre-/postemergence greenhouse test; format: in vivo, Zea mays; settings: for Plant response rating, Corn: 0 to 100 scale where 0 is no effect and 100 is complete control; for Corn plant response rating: 0 to 100 scale
Summary of the method: as §1

[9] = system: rice; experiment: Test C flooded paddy test; format: in vivo, Oryza sativa; settings: Flood
Summary of the method: (§2)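 Test compounds are applied straight into paddy water held 3 cm above the soil surface, with that flood maintained for the whole test. After 13 to 15 days in the greenhouse, each species is scored visually relative to controls.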

[10] = system: umbrella sedge; experiment: Test C flooded paddy test; format: in vivo, Cyperus difformis; settings: Flood
Summary of the method: as §2

[11] = system: duck salad; experiment: Test C flooded paddy test; format: in vivo, Heteranthera limosa; settings: Flood
Summary of the method: as §2

[12] = system: barnyardgrass; experiment: Test C flooded paddy test; format: in vivo, Echinochloa crus-galli; settings: Flood
Summary of the method: as §2

[13] = Postemergence, 500 g ai/ha, 0 is no effect, 100 is complete control
[14] = Preemergence, 125 g ai/ha, 0 no effect, 100 complete control
[15] = Preemergence, 500 g ai/ha, 0 no effect, 100 complete control
[16] = 62 g ai/ha, scale 0 to 100 (0 no effect, 100 complete control)
[17] = 250 g ai/ha, scale 0 to 100, 0 no effect, 100 complete control, 13 to 15 days
[18] = 62 g ai/ha, scale 0 to 100, 0 no effect, 100 complete control, 13 to 15 days

SMILES: Cn1nc(C(F)(F)F)c(CS(=O)(=O)c2ccc(Cl)c[n+]2[O-])c1OCC(F)F [Compound 93]
- Plant response rating, Barnyardgrass ([1]; Postemergence, 125 g ai/ha): 70
- Barnyardgrass plant response rating [1, 13]: 80
- Barnyardgrass plant response rating [1, 14]: 60
- Plant response rating, Barnyardgrass ([1]; Preemergence, 500 g ai/ha): 90
- Plant response rating, Crabgrass, Large ([2]; Postemergence, 125 g ai/ha): 50
- Crabgrass, Large plant response rating [2, 13]: 80
- Crabgrass, Large plant response rating [2, 14]: 60
- Plant response rating, Crabgrass, Large ([2]; Preemergence, 500 g ai/ha): 90
- Plant response rating, Foxtail, Giant ([3]; Postemergence, 125 g ai/ha): 60
- Foxtail, Giant plant response rating [3, 13]: 80
- Foxtail, Giant plant response rating [3, 14]: 60
- Plant response rating, Foxtail, Giant ([3]; Preemergence, 500 g ai/ha): 90
- Plant response rating, Morningglory ([4]; Postemergence, 125 g ai/ha): 30
- Morningglory plant response rating [4, 13]: 40
- Morningglory plant response rating [4, 14]: 0
- Plant response rating, Morningglory ([4]; Preemergence, 500 g ai/ha): 0
- Plant response rating, Pigweed ([5]; Postemergence, 125 g ai/ha): 60
- Pigweed plant response rating [5, 13]: 70
- Pigweed plant response rating [5, 14]: 70
- Plant response rating, Pigweed ([5]; Preemergence, 500 g ai/ha): 100
- Plant response rating, Velvetleaf ([6]; Postemergence, 125 g ai/ha): 0
- Velvetleaf plant response rating [6, 13]: 50
- Velvetleaf plant response rating [6, 14]: 0
- Velvetleaf plant response rating [6, 15]: 40
- Plant response rating, Wheat ([7]; Postemergence, 125 g ai/ha): 20
- Wheat plant response rating [7, 13]: 40
- Wheat plant response rating [7, 14]: 30
- Wheat plant response rating [7, 15]: 30
- Plant response rating, Corn ([8]; Postemergence, 125 g ai/ha): 30
- Corn plant response rating [8, 13]: 30
- Corn plant response rating [8, 14]: 0
- Plant response rating, Corn ([8]; Preemergence, 500 g ai/ha): 0
- Plant response rating, Rice [9, 16]: 0
- Plant response rating, Rice [9, 17]: 30
- Plant response rating, Sedge, Umbrella [10, 16]: 0
- Plant response rating, Sedge, Umbrella [10, 17]: 40
- Plant response rating, Ducksalad [11, 16]: 0
- Plant response rating, Ducksalad [11, 17]: 50
- Plant response rating, Barnyardgrass [12, 16]: 0
- Plant response rating, Barnyardgrass [12, 17]: 20

SMILES: Cc1cc[n+]([O-])c(S(=O)(=O)Cc2c(C(F)(F)F)nn(CC(F)(F)F)c2Cl)c1 [Compound 49]
- Plant response rating, Barnyardgrass ([1]; Postemergence, 125 g ai/ha): 40
- Barnyardgrass plant response rating [1, 13]: 70
- Barnyardgrass plant response rating [1, 14]: 70
- Plant response rating, Barnyardgrass ([1]; Preemergence, 500 g ai/ha): 90
- Plant response rating, Crabgrass, Large ([2]; Postemergence, 125 g ai/ha): 30
- Crabgrass, Large plant response rating [2, 13]: 70
- Crabgrass, Large plant response rating [2, 14]: 70
- Plant response rating, Crabgrass, Large ([2]; Preemergence, 500 g ai/ha): 90
- Plant response rating, Foxtail, Giant ([3]; Postemergence, 125 g ai/ha): 40
- Foxtail, Giant plant response rating [3, 13]: 70
- Foxtail, Giant plant response rating [3, 14]: 80
- Plant response rating, Foxtail, Giant ([3]; Preemergence, 500 g ai/ha): 90
- Plant response rating, Morningglory ([4]; Postemergence, 125 g ai/ha): 0
- Morningglory plant response rating [4, 13]: 0
- Morningglory plant response rating [4, 14]: 30
- Plant response rating, Morningglory ([4]; Preemergence, 500 g ai/ha): 30
- Plant response rating, Pigweed ([5]; Postemergence, 125 g ai/ha): 0
- Pigweed plant response rating [5, 13]: 10
- Pigweed plant response rating [5, 14]: 80
- Plant response rating, Pigweed ([5]; Preemergence, 500 g ai/ha): 100
- Plant response rating, Velvetleaf ([6]; Postemergence, 125 g ai/ha): 20
- Velvetleaf plant response rating [6, 13]: 30
- Velvetleaf plant response rating [6, 14]: 0
- Plant response rating, Velvetleaf ([6]; Preemergence, 500 g ai/ha): 40
- Plant response rating, Wheat ([7]; Postemergence, 125 g ai/ha): 0
- Wheat plant response rating [7, 13]: 0
- Wheat plant response rating [7, 14]: 0
- Plant response rating, Wheat ([7]; Preemergence, 500 g ai/ha): 30
- Plant response rating, Corn ([8]; Postemergence, 125 g ai/ha): 0
- Corn plant response rating [8, 13]: 0
- Corn plant response rating [8, 14]: 0
- Plant response rating, Corn ([8]; Preemergence, 500 g ai/ha): 0
- Plant response rating, Rice [9, 18]: 0
- Plant response rating, Rice [9, 17]: 0
- Plant response rating, Sedge, Umbrella [10, 17]: 10
- Plant response rating, Ducksalad [11, 18]: 0
- Plant response rating, Ducksalad [11, 17]: 0
- Plant response rating, Barnyardgrass [12, 18]: 0
- Plant response rating, Barnyardgrass [12, 17]: 0
